Data reported in patent US20260297083A1, “SUBSTITUTED ACETYLENE COMPOUND DERIVATIVES AND THEIR PHARMACEUTICAL USE” (AVELOS THERAPEUTICS INC., priority 2023, published 2026).

Each compound was assayed on DLD-1 BRCA2(−/−) Cell (assay: Cell viability assay (Resazurin) in DLD1-BRCA2 cells). Settings: 14 days, 1,500 cells/well, final DMSO 1%.
Assay type: cell-based
Description: DLD1-BRCA2 KG (Horizon Discovery, Cat #HD 105-007) cells and DLD1-parental cells were maintained in culture media (RPMI-1640 including 2 mM L-glutamin and 25 mM sodium bicarbonate, supplemented with 10% FBS), at 37° C. in a humidified atmosphere with 5% CO2. Cells were seeded at the final concentration of 1,500 cells/well (DLD1-BRCA2 KG) and 600 cells/well (DLD1-parental) in a 96-well plate. Four hours later, test compounds were added (the final concentration of DMSO was 1%) to the cells and media were replaced every 3-4 days for 14 days. To measure viability, cells were incubated in culture media supplemented with 0.1 mg/ml of Resazurin (Merck, Cat #R7017) for 4 hours. The fluorescence was measured at Ex/Em=560 nm/590 nm using EnSight multimode plate reader (Perkin Elmer). Data analysis and IC50 calculation was done using GraphPad Prism (Version 10.0.2).

IC50 | Compound
1100 to 5000 nM | (S)-N-(3-(6-aminopyridazin-3-yl)prop-2-yn-1- yl)-2-(6-methyl-4-(trifluoromethyl)pyridin-2- yl)-N-(m-tolyl)isothiazolidine-3-carboxamide 1,1-dioxide [Example 19]

Same assay, conditions: Homo sapiens, DLD-1, 336 h, 14 days, 1,500 cells/well, final DMSO 1%

Compound | IC50
Cc1cc(C(F)(F)F)cc(N2[C@@H](C(=O)N(CC#Cc3cnc(N4C[C@H](C)N(C(C)C)[C@@H](C)C4)cn3)c3ccc(F)c(C)c3)CCS2(=O)=O)n1 [Example 54, (R)-N-(4-fluoro-3-methylphenyl)-N-(3-(5-((3S,5S)-4-isopropyl-3,5-dimethylpiperazin-1-yl)pyrazin-2-yl)prop-2-yn-1-yl)-2-(6-methyl-4-(trifluoromethyl)pyridin-2-yl)isothiazolidine-3-carboxamide 1,1-dioxide] | > 5100 nM
Cc1cc(C(F)(F)F)cc(N2[C@H](C(=O)N(CC#Cc3cnc(C(N)=O)cn3)c3ccc(F)c(C)c3)CCS2(=O)=O)n1 [Example 61, (S)-N-(3-(5-carbamoylpyrazin-2-yl)prop-2-yn-1-yl)-N-(4-fluoro-3-methylphenyl)-2-(6-methyl-4-(trifluoromethyl)pyridin-2-yl)isothiazolidine-3-carboxamide 1,1-dioxide] | > 5100 nM
Cc1cc(C(F)(F)F)cc(N2[C@H](C(=O)N(CC#Cc3cnc(NC(N)=O)cn3)c3ccc(F)c(C)c3)CCS2(=O)=O)n1 [Example 35, (S)-N-(4-fluoro-3-methylphenyl)-2-(6-methyl-4-(trifluoromethyl)pyridin-2-yl)-N-(3-(5-ureidopyrazin-2-yl)prop-2-yn-1-yl)isothiazolidine-3-carboxamide 1,1-dioxide] | 1100 to 5000 nM
Cc1cccc(N(CC#Cc2ccc(N)nn2)C(=O)[C@@H]2CN(C)S(=O)(=O)N2c2cc(C(F)(F)F)cc(C)n2)c1 [Example 107, (3S)-N-[3-(6-aminopyridazin-3-yl)prop-2-ynyl]-5-methyl-2-[6-methyl-4-(trifluoromethyl)-2-pyridyl]-N-(m-tolyl)-1,1-dioxo-1,2,5-thiadiazolidine-3-carboxamide] | 1100 to 5000 nM
CCN1CCN(CC#CCN(C(=O)[C@@H]2CCC(=O)N2c2cc(C(F)(F)F)cc(C)n2)c2ccc(F)c(C)c2F)CC1 [Example 13, (S)—N-(2,4-difluoro-3-methylphenyl)-N-(4-(4-ethylpiperazin-1-yl)but-2-yn-1-yl)-1-(6-methyl-4-(trifluoromethyl)pyridin-2-yl)-5-oxopyrrolidine-2-carboxamide] | 1100 to 5000 nM
Cc1cc(C(F)(F)F)cc(N2[C@H](C(=O)N(CC#Cc3cnc(N4CC5(COC5)C4)cn3)c3ccc(F)c(C)c3)CCS2(=O)=O)n1 [Example 38, (S)-N-(3-(5-(2-oxa-6-azaspiro[3.3]heptan-6-yl)pyrazin-2-yl)prop-2-yn-1-yl)-N-(4-fluoro-3-methylphenyl)-2-(6-methyl-4-(trifluoromethyl)pyridin-2-yl)isothiazolidine-3-carboxamide 1,1-dioxide] | 1100 to 5000 nM
Cc1cc(C(F)(F)F)cc(N2[C@H](C(=O)N(CC#Cc3cccc(C(N)=O)c3)c3ccc(F)c(C)c3)CCS2(=O)=O)n1 [Example 106, (S)-N-(3-(3-carbamoylphenyl)prop-2-yn-1-yl)-N-(4-fluoro-3-methylphenyl)-2-(6-methyl-4-(trifluoromethyl)pyridin-2-yl)isothiazolidine-3-carboxamide 1,1-dioxide] | 1100 to 5000 nM
Cc1cc(C(F)(F)F)cc(N2[C@H](C(=O)N(CC#Cc3cc(C)c(N)c(C)n3)c3ccc(F)c(C)c3)CCS2(=O)=O)n1 [Example 91, (S)-N-(3-(5-amino-4,6-dimethylpyridin-2-yl)prop-2-yn-1-yl)-N-(4-fluoro-3-methylphenyl)-2-(6-methyl-4-(trifluoromethyl)pyridin-2-yl)isothiazolidine-3-carboxamide 1,1-dioxide] | 1100 to 5000 nM
Cc1cc(C(F)(F)F)cc(N2[C@H](C(=O)N(CC#Cc3cnc(C(=O)O)cn3)c3ccc(F)c(C)c3)CCS2(=O)=O)n1 [Example 60, (S)-5-(3-(N-(4-fluoro-3-methylphenyl)-2-(6-methyl-4-(trifluoromethyl)pyridin-2-yl)-1,1-dioxidoisothiazolidine-3-carboxamido)prop-1-yn-1-yl)pyrazine-2-carboxylic acid] | > 5100 nM

More lines, now with the values ahead:

IC50 | Compound
1100 to 5000 nM | CC(=O)Nc1cnc(C#CCN(C(=O)[C@@H]2CCS(=O)(=O)N2c2cc(C(F)(F)F)cc(C)n2)c2ccc(F)c(C)c2)cn1 [Example 34, (S)-N-(3-(5-acetamidopyrazin-2-yl)prop-2-yn-1-yl)-N-(4-fluoro-3-methylphenyl)-2-(6-methyl-4-(trifluoromethyl)pyridin-2-yl)isothiazolidine-3-carboxamide 1,1-dioxide]
< 1000 nM | Cc1cc(C(F)(F)F)cc(N2[C@H](C(=O)N(CC#Cc3ncc(C(N)=O)cn3)c3ccc(F)c(C)c3)CCS2(=O)=O)n1 [Example 81, (S)-N-(3-(5-carbamoylpyrimidin-2-yl)prop-2-yn-1-yl)-N-(4-fluoro-3-methylphenyl)-2-(6-methyl-4-(trifluoromethyl)pyridin-2-yl)isothiazolidine-3-carboxamide 1,1-dioxide]
< 1000 nM | Cc1cc(C(F)(F)F)cc(N2[C@H](C(=O)N(CC#Cc3cncc(C(=O)N4CC5CCC(C4)N5)n3)c3ccc(F)c(C)c3)CCS2(=O)=O)n1 [Example 73, (3S)-N-(3-(6-(3,8-diazabicyclo[3.2.1]octane-3-carbonyl)pyrazin-2-yl)prop-2-yn-1-yl)-N-(4-fluoro-3-methylphenyl)-2-(6-methyl-4-(trifluoromethyl)pyridin-2-yl)isothiazolidine-3-carboxamide 1,1-dioxide]
< 1000 nM | Cc1cc(C(F)(F)F)cc(N2[C@H](C(=O)N(CC#Cc3nccc(N4CCOCC4)n3)c3ccc(F)c(C)c3)CCS2(=O)=O)n1 [Example 80, (S)-N-(4-fluoro-3-methylphenyl)-2-(6-methyl-4-(trifluoromethyl)pyridin-2-yl)-N-(3-(4-morpholinopyrimidin-2-yl)prop-2-yn-1-yl)isothiazolidine-3-carboxamide 1,1-dioxide]
< 1000 nM | Cc1cc(C(F)(F)F)cc(N2[C@H](C(=O)N(CC#Cc3ccc(C(=O)N(C)C)nc3)c3ccc(F)c(C)c3)CCS2(=O)=O)n1 [Example 111, (S)-N-(3-(6-(dimethylcarbamoyl)pyridin-3-yl)prop-2-yn-1-yl)-N-(4-fluoro-3-methylphenyl)-2-(6-methyl-4-(trifluoromethyl)pyridin-2-yl)isothiazolidine-3-carboxamide 1,1-dioxide]
< 1000 nM | Cc1cc(C(F)(F)F)cc(N2[C@H](C(=O)N(CC#Cc3cnc(N4C5CCC4COC5)cn3)c3ccc(F)c(C)c3)CCS2(=O)=O)n1 [Example 49, (3S)-N-(3-(5-(3-oxa-8-azabicyclo[3.2.1]octan-8-yl)pyrazin-2-yl)prop-2-yn-1-yl)-N-(4-fluoro-3-methylphenyl)-2-(6-methyl-4-(trifluoromethyl)pyridin-2-yl)isothiazolidine-3-carboxamide 1,1-dioxide]
< 1000 nM | Cc1cc(C(F)(F)F)cc(N2[C@H](C(=O)N(CC#Cc3cncc(C(=O)N4C[C@H](C)N[C@@H](C)C4)n3)c3ccc(F)c(C)c3)CCS2(=O)=O)n1 [Example 74, (S)-N-(3-(6-((3S,5S)-3,5-dimethylpiperazine-1-carbonyl)pyrazin-2-yl)prop-2-yn-1-yl)-N-(4-fluoro-3-methylphenyl)-2-(6-methyl-4-(trifluoromethyl)pyridin-2-yl)isothiazolidine-3-carboxamide 1,1-dioxide]
